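Dose response: 5 concentrations. Exposure: 48 h. Format: 96-well plates. Endpoint: linear interpolation; highest concentration if not reached. Definition used: TGI = concentration required for complete inhibition of growth.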
Experiments:
Assay in all cases: NCI tumour cell line growth inhibition, 48 h
[1] = test system: RXF 393 renal
[2] = test system: HCT-15 colon
[3] = test system: SF-539 CNS
[4] = test system: OVCAR-4 ovarian
[5] = test system: SK-MEL-2 melanoma
[6] = test system: SK-OV-3 ovarian
[7] = test system: MCF7 breast
[8] = test system: SF-295 CNS
[9] = test system: EKVX NSCLC
[10] = test system: BT-549 breast
[11] = test system: SR leukemia
[12] = test system: MDA-MB-231 breast
[13] = test system: MALME-3M melanoma
[14] = test system: SW-620 colon
[15] = test system: 786-0 renal
[16] = test system: SF-268 CNS

COC(=O)Nc1nc2ccc(Oc3ccc4nc(NC(=O)OC)[nH]c4c3)cc2[nH]1
TGI [1]: > 22.8 µM
TGI [2]: > 100 µM
TGI [3]: 1.69 µM
TGI [4]: > 100 µM
TGI [5]: > 100 µM
TGI [6]: > 100 µM
TGI [7]: > 100 µM
TGI [8]: > 100 µM
TGI [9]: > 100 µM
TGI [10]: > 100 µM
TGI [11]: > 21.9 µM
TGI [12]: 11 µM
TGI [13]: > 100 µM
TGI [14]: 11.2 µM
TGI [15]: > 49.6 µM

NC(=O)C(c1ccccc1)N1OC2C(=O)N(Cc3ccccc3)C(=O)C2C1c1cccc(Oc2ccc(Cl)cc2)c1 (configuration not stated)
TGI [1]: 53 µM
TGI [16]: > 100 µM
TGI [2]: > 100 µM
TGI [3]: 47.2 µM
TGI [4]: > 100 µM
TGI [5]: 48.8 µM
TGI [6]: > 100 µM
TGI [7]: 69.4 µM
TGI [8]: > 100 µM
TGI [9]: 67.2 µM
TGI [10]: > 100 µM
TGI [11]: 54.1 µM
TGI [12]: > 100 µM
TGI [13]: > 100 µM
TGI [14]: > 100 µM
TGI [15]: 50 µM

C/C(=N/NC(=O)c1ccncc1)c1ccc(NC(=O)C(=O)Nn2c(=S)[nH]c3ccccc3c2=O)cc1
TGI [1]: > 100 µM
TGI [16]: > 100 µM
TGI [2]: > 100 µM
TGI [3]: > 100 µM
TGI [4]: > 100 µM
TGI [5]: > 100 µM
TGI [6]: > 100 µM
TGI [7]: > 100 µM
TGI [8]: > 100 µM
TGI [9]: > 100 µM
TGI [10]: > 100 µM
TGI [11]: > 100 µM
TGI [12]: > 100 µM
TGI [13]: > 100 µM
TGI [14]: > 100 µM
TGI [15]: > 100 µM

CC1=C(C(=O)N[C@@H](Cc2ccccc2)C(=O)O)N2C(=O)[C@@H](NC(=O)[C@@H](N)CC(C)C)[C@H]2SC1
TGI [1]: > 100 µM
TGI [16]: > 100 µM
TGI [2]: > 100 µM
TGI [3]: > 100 µM
TGI [4]: > 100 µM
TGI [5]: > 100 µM
TGI [7]: > 100 µM
TGI [8]: > 100 µM
TGI [9]: > 100 µM
TGI [10]: > 100 µM
TGI [11]: > 100 µM
TGI [12]: > 100 µM
TGI [13]: > 100 µM
TGI [14]: > 100 µM
TGI [15]: > 100 µM

O=C(O)c1nc2cc(C(F)(F)F)ccc2nc1Nc1ccc(Cl)c(Cl)c1
TGI [1]: 37.5 µM
TGI [16]: 36.4 µM
TGI [2]: 24.8 µM
TGI [3]: 23.7 µM
TGI [4]: 65.9 µM
TGI [5]: 8.25 µM
TGI [6]: 30.7 µM
TGI [7]: 90.1 µM
TGI [8]: 31.7 µM
TGI [9]: 42.4 µM
TGI [10]: 27.5 µM
TGI [11]: 96.3 µM
TGI [12]: 48.8 µM
TGI [13]: 38.7 µM
TGI [14]: 22.7 µM
TGI [15]: 29.3 µM

C[n+]1noc(/N=N\[O-])c1-c1cc(-c2c(/N=N\[O-])on[n+]2C)cc(-c2c(/N=N/[O-])on[n+]2C)c1
TGI [1]: > 100 µM
TGI [16]: > 100 µM
TGI [2]: > 100 µM
TGI [3]: > 100 µM
TGI [4]: > 100 µM
TGI [5]: > 100 µM
TGI [6]: > 100 µM
TGI [7]: > 100 µM
TGI [8]: > 100 µM
TGI [9]: > 100 µM
TGI [10]: > 100 µM
TGI [11]: > 100 µM
TGI [12]: > 100 µM
TGI [13]: > 100 µM
TGI [14]: > 100 µM
TGI [15]: > 100 µM

COC(=O)c1ccc(Oc2nc3ccccc3nc2-c2cccs2)cc1
TGI [1]: > 100 µM
TGI [16]: 66 µM
TGI [2]: > 100 µM
TGI [3]: > 100 µM
TGI [4]: > 100 µM
TGI [5]: > 100 µM
TGI [6]: > 100 µM
TGI [7]: > 100 µM
TGI [8]: 48 µM
TGI [9]: > 100 µM
TGI [10]: > 100 µM
TGI [11]: > 100 µM
TGI [12]: 57.8 µM
TGI [13]: > 100 µM
TGI [14]: > 100 µM
TGI [15]: > 100 µM

CN1CCC(CNC(=O)CCCCCCCCC(=O)NCC2(c3ccccc3)CCN(C)CC2)(c2ccccc2)CC1
TGI [1]: > 100 µM
TGI [16]: 57.6 µM
TGI [2]: > 100 µM
TGI [3]: 48.8 µM
TGI [4]: > 100 µM
TGI [5]: > 100 µM
TGI [6]: > 100 µM
TGI [7]: > 100 µM
TGI [8]: > 100 µM
TGI [9]: 38.8 µM
TGI [10]: > 100 µM
TGI [11]: > 100 µM
TGI [12]: > 100 µM
TGI [13]: > 100 µM
TGI [14]: > 100 µM
TGI [15]: > 100 µM

COC(=O)C1=C(OC(=O)/C(=C/c2ccc(Cl)cc2Cl)c2ccc(Cl)cc2Cl)C(C(=O)OC)[C@@]2(O)[C@@H](C(=O)OC)[C@H](C)C[C@@H]1[C@@H]2C(=O)OC (some centres not stated)
TGI [1]: > 100 µM
TGI [16]: > 100 µM
TGI [2]: > 100 µM
TGI [3]: > 100 µM
TGI [4]: > 100 µM
TGI [5]: > 100 µM
TGI [6]: > 100 µM
TGI [7]: > 100 µM
TGI [8]: > 100 µM
TGI [9]: > 100 µM
TGI [10]: > 100 µM
TGI [11]: > 100 µM
TGI [12]: > 100 µM
TGI [13]: > 100 µM
TGI [14]: > 100 µM
TGI [15]: > 100 µM

COc1ccc(C2=C(Cl)c3cc(OC)c(OC)cc3C2=O)cc1OC
TGI [1]: 18 µM
TGI [16]: 35.9 µM
TGI [2]: 20.7 µM
TGI [3]: 35.9 µM
TGI [4]: 25.5 µM
TGI [5]: 28 µM
TGI [6]: 36.9 µM
TGI [7]: 27.9 µM
TGI [8]: > 100 µM
TGI [9]: 37.9 µM
TGI [10]: 29.5 µM
TGI [11]: > 100 µM
TGI [12]: 36.5 µM
TGI [13]: 26 µM
TGI [14]: 31.3 µM
TGI [15]: 10.7 µM

N#Cc1nc(C2CC2)oc1N
TGI [1]: > 100 µM
TGI [16]: > 100 µM
TGI [2]: > 100 µM
TGI [3]: > 100 µM
TGI [4]: > 100 µM
TGI [5]: > 100 µM
TGI [6]: > 100 µM
TGI [7]: > 100 µM
TGI [8]: > 100 µM
TGI [9]: > 100 µM
TGI [10]: > 100 µM
TGI [11]: > 100 µM
TGI [12]: > 100 µM
TGI [13]: > 100 µM
TGI [14]: > 100 µM
TGI [15]: > 100 µM

CCSc1c(C)c2c(n(Cc3ccc(OC)cc3)c1=O)Cc1ccccc1C2
TGI [1]: > 100 µM
TGI [16]: > 100 µM
TGI [2]: > 100 µM
TGI [3]: 80.1 µM
TGI [4]: > 100 µM
TGI [5]: 66 µM
TGI [6]: > 100 µM
TGI [7]: > 100 µM
TGI [8]: > 100 µM
TGI [9]: 96.9 µM
TGI [10]: 93.4 µM
TGI [11]: 21.3 µM
TGI [12]: 94.7 µM
TGI [13]: 45.7 µM
TGI [14]: 84 µM
TGI [15]: 28.9 µM

OC(CC(CC(O)(C(F)(F)Cl)C(F)(F)Cl)=NNc1ccccc1)(C(F)(F)Cl)C(F)(F)Cl
TGI [1]: 6.82 µM
TGI [16]: 7.44 µM
TGI [2]: 9.16 µM
TGI [3]: 8.75 µM
TGI [4]: > 10 µM
TGI [5]: 3.56 µM
TGI [6]: > 10 µM
TGI [7]: 9.93 µM
TGI [8]: 7.09 µM
TGI [9]: 7.35 µM
TGI [10]: 5.69 µM
TGI [11]: > 10 µM
TGI [12]: 6.63 µM
TGI [13]: 7.14 µM
TGI [14]: > 10 µM
TGI [15]: > 10 µM

C#CCn1c(=O)ccn(/C(=C\C(=O)OCC)C(=O)OCC)c1=O
TGI [1]: 4.84 µM
TGI [16]: 42.4 µM
TGI [2]: 6.63 µM
TGI [3]: 4.64 µM
TGI [4]: 7.3 µM
TGI [5]: 32.5 µM
TGI [6]: > 59.9 µM
TGI [7]: 9.78 µM
TGI [8]: 43.3 µM
TGI [9]: 27.9 µM
TGI [10]: 25.4 µM
TGI [11]: > 43.5 µM
TGI [12]: 41.9 µM
TGI [13]: 4.99 µM
TGI [14]: 5.37 µM
TGI [15]: 6.05 µM

CCOC(=O)[C@@H]1C[C@H]1c1ccc(O)c(O)c1
TGI [1]: 87.4 µM
TGI [16]: > 100 µM
TGI [2]: > 100 µM
TGI [3]: > 100 µM
TGI [5]: 61.5 µM
TGI [6]: > 100 µM
TGI [7]: > 100 µM
TGI [8]: > 100 µM
TGI [9]: > 100 µM
TGI [10]: > 100 µM
TGI [11]: > 100 µM
TGI [12]: 63.1 µM
TGI [13]: > 100 µM
TGI [14]: > 100 µM
TGI [15]: > 100 µM

From PubChem BioAssay (NCI)
